Broadly, the IC50 is the midpoint of a concentration-inhibition curve. The low end stands for greater potency in that assay, the high end for weaker potency in that assay. One may read the AUC as the area under the concentration-time curve, a measure of exposure.

Data set [1] concerns LTB4-induced phosphorylation of ERK in monocytes. Kind of data set: Human pERK assay in whole blood. The class given is cell-based. To be noted: Monocyte, 10 nM LTB4. How it is done: The ability of the compound of Example 2 to block LTB4-induced signaling through BLT1 was assessed in whole blood obtained from healthy human volunteers and from 129SvEv mice that are the model strain for preclinical AAA efficacy evaluation.
Whole blood is collected from human donors in 10 mL K2 ethylenediaminetetraacetic acid (EDTA) vacutainer tubes (BD Biosciences). Aliquots of whole blood are pre-warmed at 37° C. for 20 min. 10 point dose response curves of test compounds are assayed at final concentrations of 20 nM-10 μM. 10 point ½ serial dilutions of compound at 1000× of final assayed concentration are prepared in DMSO. Compound is then diluted to 10× in Dulbecco's Phosphate Buffered Saline (DPBS) (DMSO concentration is now 1%). 10 μL of compound dilutions (at 10× in DPBS) or 1% DMSO in DPBS are added to wells of a 2.0 mL volume 96 deep well plate (Nunc) and placed in 37° C. heat block.
Immediately thereafter, 80 μL whole blood is added and incubated for 20 min at 37° C. […] Samples are warmed to room temperature and analyzed on a Beckman Coulter FC500 flow cytometer. […] Data are analyzed with WinList software (Verity Software House) to determine mean and median fluorescent intensity values for pERK-PE from monocyte population.

For data set [2], the system named is LTB4-induced CD11b expression in neutrophils. The data set can be described thus: CD11b assay, mouse whole blood. The class given is cell-based. To be noted: Neutrophil, 25 nM LTB4. How it is done:
EDTA anti-coagulated blood is collected from human donors or mice as before. For in vitro experiments, 8 or 10 point dose response curves of test compounds are assayed at final concentrations of 78 nM-10 μM or 20 nM-10 μM respectively. ½ serial dilutions of compound at 1000× of final assayed concentration are prepared in DMSO. Compound is then diluted to 10× in DPBS (DMSO concentration is now 1%). 10 μL of compound dilutions (at 10× in DPBS) or 1% DMSO in DPBS are added to wells of a 96 deep well plate. 90 μL whole blood is added and incubated 20 min at room temperature. 11 μL of 10×LTB4 (final concentration 25 nM for mouse or 10 nM human) is added and incubated at 37° C. for 30 min. The reaction is stopped by incubating the plate on ice for 5 min. The cells are stained with 10 μL anti-mouse or anti-human CD11b-PE (BD Biosciences diluted 1:20 for mouse and undiluted for human) and incubated on ice for 30 min in the dark (for mouse experiments, 10 μL anti-mouse LY6G-FITC antibody (BD Pharmingen) diluted 1:25 is added for the final 10 min) Red blood cells (RBCs) are lysed by adding 1.5 mL of 1×BD FACSlyse (BD Biosciences) and incubating for 10 min at room temperature in the dark. […] Data are analyzed with WinList software (Verity Software House) to determine mean and median fluorescent intensity values for CD11b-PE from neutrophil population.

A short description of data set [3]: Exposure (AUC) in the LDLr KO mouse atherosclerosis study. As to conditions: male, LDLr KO (JAX #002207), in vivo, LDLr KO mice. The source says: LDLr KO mice (JAX #002207), 7 week old males, were obtained from The Jackson Laboratory (Bar Harbor, Me.). Upon arrival at the testing facility and continuing for a total of 10 weeks, mice were housed individually and fed the atherogenic diet TD.88137 (Teklad) ad libitum. During the first 6 weeks, the mice rested undisturbed in their cages. During the last 4 weeks, the mice received the test compound twice daily by oral gavage.

With `CCCc1c(NC(=O)CC(C)(C)C(=O)[O-])cccc1OCCCOc1cc(O)c(-c2ccc(F)cc2)cc1CC.[Na+]` [Example 2, Sodium 4-[[3-[3-[2-ethyl-4-(4-fluorophenyl)-5-hydroxy-phenoxy]propoxy]-2-propyl-phenyl]amino]-2,2-dimethyl-4-oxo-butanoate], the 50% inhibitory concentration (IC50) in data set [1] is 814 nM; in data set [2], 1450 nM. Besides, the AUC in data set [3] (3 mg/kg BID oral gavage) is 1110 ng·h/mL; in data set [3] (10 mg/kg BID oral gavage) it was 5380 ng·h/mL; in data set [3] (30 mg/kg BID oral gavage), 12800 ng·h/mL.
